Experimental data taken from patent US20100113430A1, “THIOXANTHENE DERIVATES USEFUL TO TREAT INFECTIOUS DISEASES” (BKG PHARMA APS, priority 2007, published 2010).

Tests used:
[1] = test system: Enterococcus faecalis BG VSE-92; assay: Mouse peritonitis/sepsis model; assay type: in vivo, NMRI mice; conditions: 25 mg/kg s.c.
Protocol: A clinical multiresistant isolate of Enterococcus faecalis BG VSE-92 from human urine was used.
Female NMRI mice (age, approximately 6 to 8 weeks; weight, 30±2 g) were used for the mouse […] peritonitis model (as described below).
Bacterial suspensions were prepared from fresh overnight cultures (made from frozen stock cultures) on 5% blood agar plates as described above. The inoculum for the mouse peritonitis model was prepared immediately before use and was adjusted at 540 nm of giving a density of approximately 10^7 CFU/ml. The size of the inoculum was determined by viability counting on 5% blood agar.
The mice were injected intraperitoneally with 0.5 ml of the enterococcal suspension, resulting in bacteremia within 1 h of inoculation. Antibiotic therapy was initiated 1 h after inoculation. N-dealkyl-trans-clopenthixol was administered subcutaneously in the neck region in a volume of 0.7 ml per dose. Ten mice were in each treatment group. Inoculated untreated control mice were included in all trials. (Method reference: Erlandsdottir et al; Antimicrob Agents Chemother. 2001 April; 45(4):1078-85)
The effects of the various treatment regimens were determined during 6 h of treatment by evaluation of bacterial counts in the […]. After the mice were killed, blood were immediately diluted 10-fold in saline, from which 20 μl was plated onto 5% blood agar plates in spots, with subsequent counting of colonies after incubation overnight at 35° C. The lowest detection levels for bacterial counts in blood were 50 CFU/ml.
The bactericidal efficacies of the treatment regimens in the mouse models were calculated by subtracting the results for each treated mouse from the mean results for control mice at the end of therapy (6 h). A P value of <0.05 was considered significant. All statistical comparisons were two-tailed.

[2] = test system: Staphylococci, Micrococci. Including MRSA; assay: MIC/IC90 broad spectrum, Staphylococci and Micrococci; assay type: cell-based; conditions: 30 strains, 20 resistant (20 MRSA)
Protocol: (§1) Cell growth was tested using the Minimal Inhibitory Concentration (MIC) susceptibility tests by use of the microdilution broth method in accordance to the NCCLS Guidelines (NCCLS Guidelines, Methods for Dilution Antimicrobial Susceptibility Tests for Bacteria That Grow Aerobically; Approved Standard, Sixth Edition, Volume 23; Number 2). The minimum inhibitory concentration (MIC), is defined ad the lowest concentration of drug which inhibits growth of the test organism, in the sense that no visible growth is detected (total inhibition of growth). In example 2 MIC of the compounds used on fungal microorganisms was determined from the IC90 measurements according to NCCLS Guidelines.
(§2) A log phase culture of bacteria was diluted with fresh pre-warmed Mueller-Hinton medium and adjusted to a defined OD at 600 nm in order to give a final concentration of 1×10^4-5 bacteria/ml medium. The bacterial culture was transferred to microtiter-plates and culture was added to each well. Drug was added to the bacterial culture in the wells as two-fold dilution series of drug in order to give final concentrations ranging from 0.03 to 128 μg/ml. Trays were incubated at 37° C. by shaking in a robot analyzer, PowerWavex, software KC^4′ Kebo.Lab, Copenhagen, for 16 h and optical densities were measured at 600 nm during the incubation time in order to record growth curves. Wells containing bacterial culture without drug were used as controls to ensure correct inoculum size and bacterial growth during the incubation. Cultures were tested in order to detect contaminations. Each experiment was repeated in triplicate. MIC values represent the mean values of two separate triplicate experiments. Intra- and interassay variation was <5%.
Inhibition 90 (IC90) is defined as: OD responding a 90% growth inhibition.
A broad spectrum of bacteria were cultured and assayed as described above for susceptibility towards N-dealkyl-clopenthixol.

[3] = test system: Enterococcus faecium resistant clinical isolates; assay: MIC/IC90, resistant clinical isolates of Enterococcus faecium; assay type: cell-based
Protocol: as §1, §2
Inhibition 90 (IC90) is defined as: OD responding a 90% growth inhibition. […]
Clinically relevant isolates were cultured and assayed as described above.

[4] = test system: Candida albicans clinical isolate; assay: MIC (90% growth inhibition), broth microdilution NCCLS M27-A, Candida albicans; assay type: cell-based; conditions: strain 1. Candida albicans FR (fluconazole resistant)
Protocol: as §1
The antibacterial effect of demethylated/dealkylated phenothiazine or thioxanthene compounds were studied by growth inhibition studies exposing cells to 0-32 μg/ml of drug. Each experiment was repeated in triplicate. MIC values represent the mean values of two separate triplicate experiments.
4 clinical isolates of Candida sp. (including 3 fluconazole resistant isolates) were subcultured for 24 h on Sabouraud glucose agar before susceptibility testing. Broth microdilution tests were performed according to NCCLS document M27-A (Ref: National Committee for Clinical Laboratory Standards. (1997). Reference Method for Broth Dilution Antifungal Susceptibility Testing of Yeasts: Approved Standard M27-A. NCCLS, Wayne, Pa.). Microtitre plates were read spectrophotometrically at 530 nm, after mixing the wells by pipetting to resuspend yeast sediments. In this experiment, the MIC was defined as the lowest drug dilution resulting in 90% growth inhibition.

[5] = 6 hours after inoculation, infected mice
[6] = Enterococcus faecium 16, BLR, CR

Clc1ccc2c(c1)/C(=C/CCN1CCNCC1)c1ccccc1S2 [N-dealkyl-trans-clopenthixol, trans-1-(3-(2-chloro-thioxanthen-9-ylidene)propyl)piperazine]
1.55 × 10^4 Cfu/ml blood: Cfu/ml blood (median) [1, 5]
0.5 to 2 µg/mL: MIC range [2]
1 µg/mL: MIC (mean) [2] | MIC ([3]; Enterococcus faecium 11, VanA) | MIC ([3]; Enterococcus faecium 12, VanA) | MIC ([3]; Enterococcus faecium 13, VanB) | MIC ([3]; Enterococcus faecium 14, HLAR) | MIC ([3]; Enterococcus faecium 15, HLAR) | MIC [3, 6] | MIC ([3]; Enterococcus faecium 17, VanB) | MIC ([3]; Enterococcus faecium 18, VanB) | MIC ([3]; Enterococcus faecium 19, VanB) | MIC [4]
approx. 2 log: decrease of number of bacteria per ml of blood ([1]; p<0.05)
0.5 µg/mL: IC90 (mean) [2] | IC90 ([3]; Enterococcus faecium 13, VanB) | IC90 ([3]; Enterococcus faecium 14, HLAR) | IC90 ([3]; Enterococcus faecium 15, HLAR) | IC90 ([3]; Enterococcus faecium 17, VanB) | MIC ([3]; Enterococcus faecium multiresistant isolate, Example 4)
4.19 Log (cfu/ml blood): Log (cfu/ml blood) (median) [1, 5]
0.6 µg/mL: IC90 ([3]; Enterococcus faecium 11, VanA) | IC90 ([3]; Enterococcus faecium 12, VanA) | IC90 [3, 6] | IC90 ([3]; Enterococcus faecium 18, VanB) | IC90 ([3]; Enterococcus faecium 19, VanB)
